Source: the NIST ThermoML archive (doi:10.1016/j.jct.2018.12.031)
± gives the expanded uncertainty stated by the source.

Assay: xn = mol fraction of the nth substance listed
Conditions: 100 kPa, Liquid; for speed of sound: Frequency=3 MHz, Linear variable-path acoustic interferometer; for mass density: Pycnometric method

C=C(C)C(=O)OCCCC [butyl 2-methyl-2-propenoate] + N#Cc1ccccc1
Conditions | mass density [kg/m3] | speed of sound [m/s]
293.15 K, x2 = 0 | 895.19 ± 1 | 1241.7 ± 1.7
293.15 K, x2 = 0.0721 | 900.73 ± 1 | 1251.2 ± 1.7
293.15 K, x2 = 0.1507 | 907.02 ± 1 | 1262 ± 1.7
293.15 K, x2 = 0.2142 | 912.32 ± 1 | 1271.2 ± 1.7
293.15 K, x2 = 0.2876 | 918.72 ± 1 | 1282.1 ± 1.7
293.15 K, x2 = 0.3511 | 924.51 ± 1 | 1291.9 ± 1.7
293.15 K, x2 = 0.4297 | 932.05 ± 1 | 1304.6 ± 1.7
293.15 K, x2 = 0.4985 | 939.01 ± 1 | 1316.5 ± 1.7
293.15 K, x2 = 0.5715 | 946.81 ± 1 | 1330 ± 1.7
293.15 K, x2 = 0.6465 | 955.32 ± 1 | 1344.9 ± 1.7
293.15 K, x2 = 0.7147 | 963.54 ± 1 | 1359.7 ± 1.7
293.15 K, x2 = 0.7784 | 971.67 ± 1 | 1374.6 ± 1.7
293.15 K, x2 = 0.8558 | 982.2 ± 1 | 1394.4 ± 1.7
293.15 K, x2 = 0.9326 | 993.43 ± 1 | 1416.2 ± 1.7
298.15 K, x2 = 0 | 890.48 ± 1 | 1222.1 ± 1.7
298.15 K, x2 = 0.0721 | 896.08 ± 1 | 1231.8 ± 1.7
298.15 K, x2 = 0.1507 | 902.44 ± 1 | 1242.8 ± 1.7
298.15 K, x2 = 0.2142 | 907.79 ± 1 | 1252 ± 1.7
298.15 K, x2 = 0.2876 | 914.25 ± 1 | 1262.8 ± 1.7
298.15 K, x2 = 0.3511 | 920.1 ± 1 | 1272.6 ± 1.7
298.15 K, x2 = 0.4297 | 927.7 ± 1 | 1285.3 ± 1.7
298.15 K, x2 = 0.4985 | 934.73 ± 1 | 1297.1 ± 1.7
298.15 K, x2 = 0.5715 | 942.6 ± 1 | 1310.6 ± 1.7
298.15 K, x2 = 0.6465 | 951.19 ± 1 | 1325.7 ± 1.7
298.15 K, x2 = 0.7147 | 959.49 ± 1 | 1340.5 ± 1.7
298.15 K, x2 = 0.7784 | 967.7 ± 1 | 1355.6 ± 1.7
298.15 K, x2 = 0.8558 | 978.33 ± 1 | 1375.6 ± 1.7
298.15 K, x2 = 0.9326 | 989.66 ± 1 | 1397.6 ± 1.7
303.15 K, x2 = 0 | 885.78 ± 1 | 1202.4 ± 1.7
303.15 K, x2 = 0.0721 | 891.44 ± 1 | 1212.4 ± 1.7
303.15 K, x2 = 0.1507 | 897.86 ± 1 | 1223.6 ± 1.7
303.15 K, x2 = 0.2142 | 903.26 ± 1 | 1232.8 ± 1.7
303.15 K, x2 = 0.2876 | 909.78 ± 1 | 1243.7 ± 1.7
303.15 K, x2 = 0.3511 | 915.69 ± 1 | 1253.4 ± 1.7
303.15 K, x2 = 0.4297 | 923.35 ± 1 | 1266.3 ± 1.7
303.15 K, x2 = 0.4985 | 930.45 ± 1 | 1278.1 ± 1.7
303.15 K, x2 = 0.5715 | 938.39 ± 1 | 1291.6 ± 1.7
303.15 K, x2 = 0.6465 | 947.06 ± 1 | 1306.8 ± 1.7
303.15 K, x2 = 0.7147 | 955.44 ± 1 | 1321.9 ± 1.7
303.15 K, x2 = 0.7784 | 963.73 ± 1 | 1337.2 ± 1.7
303.15 K, x2 = 0.8558 | 974.46 ± 1 | 1357.7 ± 1.7
303.15 K, x2 = 0.9326 | 985.89 ± 1 | 1379.9 ± 1.7
308.15 K, x2 = 0 | 881.07 ± 1 | 1183 ± 1.7
308.15 K, x2 = 0.0721 | 886.79 ± 1 | 1193.2 ± 1.7
308.15 K, x2 = 0.1507 | 893.27 ± 1 | 1204.6 ± 1.7
308.15 K, x2 = 0.2142 | 898.72 ± 1 | 1213.9 ± 1.7
308.15 K, x2 = 0.2876 | 905.3 ± 1 | 1225 ± 1.7
308.15 K, x2 = 0.3511 | 911.26 ± 1 | 1234.8 ± 1.7
308.15 K, x2 = 0.4297 | 919 ± 1 | 1247.7 ± 1.7
308.15 K, x2 = 0.4985 | 926.16 ± 1 | 1259.6 ± 1.7
308.15 K, x2 = 0.5715 | 934.18 ± 1 | 1273.2 ± 1.7
308.15 K, x2 = 0.6465 | 942.93 ± 1 | 1288.5 ± 1.7
308.15 K, x2 = 0.7147 | 951.39 ± 1 | 1303.8 ± 1.7
308.15 K, x2 = 0.7784 | 959.75 ± 1 | 1319.5 ± 1.7
308.15 K, x2 = 0.8558 | 970.58 ± 1 | 1340.4 ± 1.7
308.15 K, x2 = 0.9326 | 982.12 ± 1 | 1362.9 ± 1.7
313.15 K, x2 = 0 | 876.35 ± 1 | 1163.8 ± 1.7
313.15 K, x2 = 0.0721 | 882.13 ± 1 | 1174.3 ± 1.7
313.15 K, x2 = 0.1507 | 888.68 ± 1 | 1185.8 ± 1.7
313.15 K, x2 = 0.2142 | 894.18 ± 1 | 1195.3 ± 1.7
313.15 K, x2 = 0.2876 | 900.82 ± 1 | 1206.5 ± 1.7
313.15 K, x2 = 0.3511 | 906.83 ± 1 | 1216.5 ± 1.7
313.15 K, x2 = 0.4297 | 914.65 ± 1 | 1229.5 ± 1.7
313.15 K, x2 = 0.4985 | 921.87 ± 1 | 1241.5 ± 1.7
313.15 K, x2 = 0.5715 | 929.96 ± 1 | 1255.2 ± 1.7
313.15 K, x2 = 0.6465 | 938.79 ± 1 | 1270.7 ± 1.7
313.15 K, x2 = 0.7147 | 947.33 ± 1 | 1286.3 ± 1.7
313.15 K, x2 = 0.7784 | 955.77 ± 1 | 1302.3 ± 1.7
313.15 K, x2 = 0.8558 | 966.7 ± 1 | 1323.7 ± 1.7
313.15 K, x2 = 0.9326 | 978.35 ± 1 | 1346.9 ± 1.7
318.15 K, x2 = 0 | 871.64 ± 1 | 1145.7 ± 1.7
318.15 K, x2 = 0.0721 | 877.48 ± 1 | 1156.5 ± 1.6
318.15 K, x2 = 0.1507 | 884.09 ± 1 | 1168.2 ± 1.6
318.15 K, x2 = 0.2142 | 889.64 ± 1 | 1177.8 ± 1.6
318.15 K, x2 = 0.2876 | 896.34 ± 1 | 1189.1 ± 1.6
318.15 K, x2 = 0.3511 | 902.4 ± 1 | 1199.1 ± 1.6
318.15 K, x2 = 0.4297 | 910.29 ± 1 | 1212.1 ± 1.6
318.15 K, x2 = 0.4985 | 917.58 ± 1 | 1224.2 ± 1.6
318.15 K, x2 = 0.5715 | 925.74 ± 1 | 1238 ± 1.6
318.15 K, x2 = 0.6465 | 934.65 ± 1 | 1253.7 ± 1.6
318.15 K, x2 = 0.7147 | 943.27 ± 1 | 1269.6 ± 1.7
318.15 K, x2 = 0.7784 | 951.79 ± 1 | 1285.9 ± 1.7
318.15 K, x2 = 0.8558 | 962.82 ± 1 | 1307.8 ± 1.7
318.15 K, x2 = 0.9326 | 974.58 ± 1 | 1331.5 ± 1.7
